HELM strings list units from the 5' end as sugar, base in round brackets, then linkage (d deoxyribose, r ribose, m 2'-O-methyl, p phosphodiester). Strings are as the collection lists them; they lack the last nucleoside at the 3' end of the tested compound. [moe] = 2'-O-(2-methoxyethyl) (MOE); [sp] = phosphorothioate linkage; [m5C] = 5-methylcytosine

This data set has as its target UBE3A-ATS. Kind of data set: mouse, dose not given. The note with it: ASO.

For “RNA1{[moe](G)[sp].[moe](T)p.[moe](G)p.[moe](G)p.[moe](T)p.d([m5C])[sp].d(A)[sp].d(G)[sp].d(A)[sp].d(T)[sp].d(T)[sp].d([m5C])[sp].d([m5C])[sp].d(T)[sp].d(A)[sp].[moe](A)p.[moe](A)p.[moe](T)[sp].[moe](A)}$$$$ (last 3' nucleoside missing)”, the 3 h FOB score worked out at 0 score 0-7.
Next, “RNA1{[moe](A)[sp].[moe](G)p.[moe]([m5C])p.[moe](T)p.[moe](T)p.d(T)[sp].d(A)[sp].d(G)[sp].d(T)[sp].d(A)[sp].d(T)[sp].d(G)[sp].d(T)[sp].d([m5C])[sp].d(G)[sp].[moe](A)p.[moe](G)p.[moe](A)[sp].[moe](A)}$$$$ (last 3' nucleoside missing)”: 4.2 score 0-7.
The result for “RNA1{[moe]([m5C])[sp].[moe](T)p.[moe]([m5C])p.[moe](A)p.[moe](G)p.d(T)[sp].d(T)[sp].d(A)[sp].d(G)[sp].d(G)[sp].d(T)[sp].d(T)[sp].d(A)[sp].d(G)[sp].d(T)[sp].[moe](G)p.[moe]([m5C])p.[moe](A)[sp].[moe]([m5C])}$$$$ (last 3' nucleoside missing)” reads 6 score 0-7; that for “RNA1{[moe](T)[sp].[moe]([m5C])p.[moe](A)p.[moe](A)[sp].d([m5C])[sp].d([m5C])[sp].d(A)[sp].d(A)[sp].d(T)[sp].d(T)[sp].d(T)[sp].d(G)[sp].[moe]([m5C])p.[moe](T)p.[moe](A)p.[moe](T)[sp].[moe](T)}$$$$ (last 3' nucleoside missing)”, 0.7 score 0-7; that for “RNA1{[moe]([m5C])[sp].[moe](A)p.[moe](T)p.[moe](G)p.[moe](T)p.d(G)[sp].d(G)[sp].d(G)[sp].d([m5C])[sp].d([m5C])[sp].d(T)[sp].d([m5C])[sp].d(T)[sp].d(A)[sp].d(T)[sp].[moe](T)p.[moe](A)p.[moe](A)[sp].[moe](G)}$$$$ (last 3' nucleoside missing)”, 4 score 0-7.
The result for “RNA1{[moe](G)[sp].[moe](T)p.[moe](A)p.[moe](G)p.[moe](G)p.d(A)[sp].d(G)[sp].d(A)[sp].d(T)[sp].d(A)[sp].d(G)[sp].d(G)[sp].d([m5C])[sp].d(A)[sp].d(G)[sp].[moe](T)p.[moe](G)p.[moe]([m5C])[sp].[moe](A)}$$$$ (last 3' nucleoside missing)” reads 5 score 0-7; that for “RNA1{[moe](A)[sp].[moe](G)p.[moe]([m5C])p.[moe]([m5C])p.[moe](A)p.d(G)[sp].d(G)[sp].d(T)[sp].d(G)[sp].d(T)[sp].d([m5C])[sp].d(T)[sp].d(T)[sp].d(A)[sp].d(T)[sp].[moe](A)p.[moe](T)p.[moe]([m5C])[sp].[moe](T)}$$$$ (last 3' nucleoside missing)”, 2.3 score 0-7.
For “RNA1{[moe](G)[sp].[moe](A)p.[moe](T)p.[moe](T)p.[moe](G)p.d(A)[sp].d(T)[sp].d([m5C])[sp].d(A)[sp].d(T)[sp].d(G)[sp].d(T)[sp].d(T)[sp].d(A)[sp].d(T)[sp].[moe](G)p.[moe]([m5C])p.[moe]([m5C])[sp].[moe]([m5C])}$$$$ (last 3' nucleoside missing)”, the 3 h FOB score was 2 score 0-7.
Next, “RNA1{[moe](A)[sp].[moe](A)p.[moe]([m5C])p.[moe](G)p.[moe]([m5C])p.[moe](A)p.d(A)[sp].d(T)[sp].d(G)[sp].d(T)[sp].d(A)[sp].d(T)[sp].d([m5C])[sp].d(A)[sp].d(G)[sp].d(G)[sp].[moe]([m5C])p.[moe](A)[sp].[moe](A)}$$$$ (last 3' nucleoside missing)”: 4.7 score 0-7.
The result for “RNA1{[moe](G)[sp].[moe](G)p.[moe](T)p.[moe]([m5C])p.[moe](A)p.[moe](A)p.d([m5C])[sp].d([m5C])[sp].d(A)[sp].d(A)[sp].d(T)[sp].d(T)[sp].d(T)[sp].d(G)[sp].d([m5C])[sp].d(T)[sp].[moe](A)p.[moe](T)[sp].[moe](T)}$$$$ (last 3' nucleoside missing)” reads 5 score 0-7; that for “RNA1{[moe](A)[sp].[moe](T)p.[moe](G)p.[moe](T)p.[moe](G)p.d([m5C])[sp].d(A)[sp].d(T)[sp].d(A)[sp].d([m5C])[sp].d([m5C])[sp].d([m5C])[sp].d(A)[sp].d(G)[sp].d(G)[sp].[moe](G)p.[moe](T)p.[moe](A)[sp].[moe](G)}$$$$ (last 3' nucleoside missing)”, 4 score 0-7.
As for “RNA1{[moe](A)[sp].[moe](G)p.[moe](T)p.[moe](A)p.[moe](T)p.d(A)[sp].d(G)[sp].d(A)[sp].d(T)[sp].d(G)[sp].d([m5C])[sp].d([m5C])[sp].d(T)[sp].d([m5C])[sp].d(T)[sp].[moe]([m5C])p.[moe]([m5C])p.[moe](T)[sp].[moe]([m5C])}$$$$ (last 3' nucleoside missing)”, the 3 h FOB score was found to be 3.3 score 0-7.
In turn, “RNA1{[moe](G)[sp].[moe]([m5C])p.[moe](T)p.[moe](T)p.[moe](T)p.d(T)[sp].d([m5C])[sp].d(A)[sp].d(G)[sp].d(T)[sp].d([m5C])[sp].d(A)[sp].d(G)[sp].d(G)[sp].d(T)[sp].[moe](A)p.[moe]([m5C])p.[moe](A)[sp].[moe](G)}$$$$ (last 3' nucleoside missing)” showed a 3 h FOB score of 6 score 0-7.
Next, “RNA1{[moe]([m5C])[sp].[moe](T)p.[moe](G)p.[moe]([m5C])p.[moe](T)p.d(T)[sp].d(A)[sp].d(T)[sp].d(G)[sp].d(T)[sp].d(A)[sp].d(G)[sp].d([m5C])[sp].d(T)[sp].d([m5C])[sp].[moe](A)p.[moe](G)p.[moe]([m5C])[sp].[moe](T)}$$$$ (last 3' nucleoside missing)”: 1 score 0-7; “RNA1{[moe](T)[sp].[moe](G)p.[moe](T)p.[moe](G)p.d(T)[sp].d(T)[sp].d(T)[sp].d(T)[sp].d(T)[sp].d([m5C])[sp].d([m5C])[sp].d(A)[sp].d(T)[sp].d(T)[sp].[moe](T)p.[moe](T)p.[moe](T)p.[moe]([m5C])[sp].[moe](T)}$$$$ (last 3' nucleoside missing)”: 1 score 0-7.
Next, “RNA1{[moe](G)[sp].[moe](T)p.[moe](A)p.[moe](T)p.[moe](A)p.d(T)[sp].d(T)[sp].d(A)[sp].d(G)[sp].d(T)[sp].d([m5C])[sp].d(T)[sp].d(A)[sp].d(A)[sp].d(G)[sp].[moe](G)p.[moe]([m5C])p.[moe](A)[sp].[moe](G)}$$$$ (last 3' nucleoside missing)”: 3.7 score 0-7; “RNA1{[moe](G)[sp].[moe]([m5C])p.[moe]([m5C])p.[moe](A)p.[moe](G)p.d(G)[sp].d(T)[sp].d(G)[sp].d(T)[sp].d([m5C])[sp].d(T)[sp].d(T)[sp].d(A)[sp].d(T)[sp].d(A)[sp].[moe](T)p.[moe]([m5C])p.[moe](T)[sp].[moe](A)}$$$$ (last 3' nucleoside missing)”: 0 score 0-7; “RNA1{[moe](G)[sp].[moe](G)p.[moe](T)p.[moe](T)p.[moe](A)p.d(A)[sp].d(G)[sp].d(T)[sp].d([m5C])[sp].d(T)[sp].d(G)[sp].d([m5C])[sp].d(T)[sp].d([m5C])[sp].d(T)[sp].[moe](T)p.[moe](T)p.[moe]([m5C])[sp].[moe](A)}$$$$ (last 3' nucleoside missing)”: 4 score 0-7.
Next, “RNA1{[moe](G)[sp].[moe](T)p.[moe](T)p.[moe](T)p.[moe](T)p.d(T)[sp].d([m5C])[sp].d([m5C])[sp].d(A)[sp].d(T)[sp].d(T)[sp].d(T)[sp].d(T)[sp].d(T)[sp].d([m5C])[sp].[moe](T)p.[moe]([m5C])p.[moe](T)[sp].[moe](T)}$$$$ (last 3' nucleoside missing)”: 0 score 0-7; “RNA1{[moe](T)[sp].[moe]([m5C])p.[moe](A)p.[moe]([m5C])p.[moe]([m5C])[sp].d(A)[sp].d(T)[sp].d(T)[sp].d(T)[sp].d(T)[sp].d(G)[sp].d(A)[sp].d([m5C])[sp].[moe]([m5C])p.[moe](T)p.[moe](T)[sp].[moe]([m5C])}$$$$ (last 3' nucleoside missing)”: 2 score 0-7.
In turn, “RNA1{[moe](G)[sp].[moe](A)p.[moe](T)p.[moe]([m5C])p.[moe](A)p.d([m5C])[sp].d(A)[sp].d(T)[sp].d(T)[sp].d(A)[sp].d([m5C])[sp].d([m5C])[sp].d([m5C])[sp].d(A)[sp].d(T)[sp].[moe]([m5C])p.[moe]([m5C])p.[moe](G)[sp].[moe](T)}$$$$ (last 3' nucleoside missing)” yielded a 3 h FOB score of 0 score 0-7.
Next, “RNA1{[moe](G)[sp].[moe](G)p.[moe](T)p.[moe](A)p.[moe](G)p.d(T)[sp].d([m5C])[sp].d(T)[sp].d(A)[sp].d(T)[sp].d(A)[sp].d(T)[sp].d(T)[sp].d(T)[sp].d(G)[sp].[moe](G)p.[moe](T)p.[moe](A)[sp].[moe](A)}$$$$ (last 3' nucleoside missing)”: 6.2 score 0-7; “RNA1{[moe](A)[sp].[moe](G)p.[moe](G)p.[moe]([m5C])p.[moe](A)p.d(T)[sp].d(T)[sp].d(T)[sp].d(G)[sp].d(G)[sp].d(A)[sp].d(G)[sp].d([m5C])[sp].d(A)[sp].d(T)[sp].[moe](T)p.[moe]([m5C])p.[moe](G)[sp].[moe](G)}$$$$ (last 3' nucleoside missing)”: 6.2 score 0-7; “RNA1{[moe](A)[sp].[moe]([m5C])p.[moe](T)p.[moe](T)p.[moe](T)p.d(A)[sp].d(T)[sp].d(A)[sp].d(G)[sp].d(T)[sp].d(G)[sp].d(T)[sp].d(G)[sp].d(G)[sp].d(A)[sp].[moe](T)p.[moe](G)p.[moe](G)[sp].[moe](T)}$$$$ (last 3' nucleoside missing)”: 6.8 score 0-7.
Next, “RNA1{[moe](T)[sp].[moe]([m5C])p.[moe](A)p.[moe]([m5C])p.[moe]([m5C])p.[moe](A)p.d(T)[sp].d(T)[sp].d(T)[sp].d(T)[sp].d(G)[sp].d(A)[sp].d([m5C])[sp].d([m5C])[sp].d(T)[sp].d(T)[sp].[moe]([m5C])p.[moe](T)[sp].[moe](T)}$$$$ (last 3' nucleoside missing)”: 1 score 0-7; “RNA1{[moe](A)[sp].[moe](A)p.[moe](A)p.[moe]([m5C])p.d(G)[sp].d([m5C])[sp].d(A)[sp].d(A)[sp].d(T)[sp].d(G)[sp].d(T)[sp].d(A)[sp].d(T)[sp].d([m5C])[sp].[moe](A)p.[moe](G)p.[moe](G)p.[moe]([m5C])[sp].[moe](A)}$$$$ (last 3' nucleoside missing)”: 2 score 0-7.

Source of the values: the OligoGym collection.
